Tests used:
HeLa cells = assay: IC50 in HeLa cells; assay type: cell-based; conditions: Homo sapiens
nonsense mutation W1268X = assay: pAC99 dual reporter readthrough in HeLa cells, W1268X; assay type: cell-based, human; conditions: 24 hours
Experimental: (§1) Different compounds of the invention have been tested for their ability to induce readthrough on the nonsense mutation W1268X or R213X in HeLa cells.
(§2) To this aim the inventors used the pAC99 dual reporter plasmid. This dual reporter is used to quantify stop-codon readthrough through the measurement of luciferase and beta-galactosidase (internal normalisation) activities. Readthrough levels for nonsense mutations were analysed in the presence or absence of tested molecules. Cells are seeded in a 6-well plate. The next day, cells are transfected with the reporter plasmid using the JetPei reagent (Invitrogen). The following day, they are rinsed with fresh medium, with or without readthrough inducers. Cells were harvested 24 hours later, with trypsin—EDTA (Invitrogen), lysed with Glo lysis buffer (Promega) and beta-galactosidase and luciferase activities were assayed as previously described. Readthrough efficiency was estimated by calculating the ratio of luciferase activity to beta-galactosidase activity obtained with the test construct, with normalisation against an in-frame control construct. At least five independent transfection experiments were performed for each assay.

nonsense mutation R213X = assay: pAC99 dual reporter readthrough in HeLa cells, R213X; assay type: cell-based, human; conditions: 24 hours
Experimental: as §1, §2

[1] = tested on: p53 (endogenous nonsense mutation R213X) in HDQ-P1 cells; assay: Western blot of full-length p53 in HDQ-P1 cells; assay type: cell-based, human; conditions: HDQ-P1, 48 h; for production of the full-length p53 (western blot): TLN68 50 μM, TLN236 30 μM, TLN309 40 μM
Experimental: HDQ-P1 cells (R213X) were treated with G418 ([…]), or the selected molecules (TLN68 50 μM, TLN1399 50 μM, TLN236 30 μM and TLN309 40 μM), for 48 h. Cells were harvested by treatment with trypsin—EDTA (Invitrogen), lysed in 350 mM NaCl, 50 mM Tris—HCl pH 7.5, 1% NP-40, and protease inhibitor cocktail (Roche) and disrupted by passage through a syringe.
Total proteins were quantified with Bradford reagent (Biorad) and extracts were denatured by incubation in Laemmli buffer for 5 minutes at 90° C. The inventors subjected 30 μg of total protein from HDQ-1 cells to SDS—PAGE in 4/10% Bis—Tris gels. Proteins were transferred onto nitrocellulose membranes, according to the manufacturer's instructions (Biorad). Membranes were saturated by overnight incubation in 5% skimmed milk powder in PBS, and incubated for 1 hour with the primary monoclonal antibody, DO-1 (N-terminal epitope mapping between amino acid residues 11 and 25 of p53; Santa Cruz Biotechnologies, 1/400) or a monoclonal antibody against mouse actin (Millipore, 1/2000). After three washes in PBS supplemented with 0.1% Tween, the membranes were incubated with the secondary antibody [horseradish peroxidase-conjugated anti-mouse IgG ( 1/2500)] for 45 minutes. The membranes were washed five times and chemiluminescence was detected with ECL Prime Western Blotting Detection Reagents (Amersham, GE Healthcare). The signal was quantified with ImageJ software.

TP53-R213X mRNA = assay: RT-qPCR of mutant p53 mRNA in HDQ-P1 cells; assay type: cell-based, human; conditions: HDQ-P1, 48 hours; TLN68 80 μM, TLN309 40 μM; n=3
Experimental: For the analysis of mRNA levels for p53 and its transcriptional target genes, Bax, the inventors extracted total RNA from HDQ-P1 cells that had or had not been treated with G418 (400 μM) or TLN68 (80 μM) for 48 hours (RNeasy Mini Kit, Qiagen). The RNA was treated with DNAse I (RNase-free DNase) and quantified with a Nanodrop spectrometer (ThermoScientific). The absence of RNA degradation was confirmed by agarose gel electrophoresis. The first-strand cDNA was synthesized from 2 μg of total RNA, with random primers and the SuperScript II Reverse Transcriptase (Invitrogen), as recommended by the manufacturer. Quantitative PCR was then carried out on equal amounts of the various cDNAs, with a CFX96 thermocycler (Biorad), and the accumulation of products was monitored with the intercalating dye FastStart Universal SYBRGreen Master (ROX) reagent (Roche). The inventors quantified mRNA levels relative to three reference mRNAs: RPL32, Hprt1 and HMBS. In each experiment, results are expressed relative to those for untreated cells, for which the value obtained was set to 1. Relative levels of gene expression were calculated at early stages of PCR, when the amplification was exponential and might, therefore, be correlated with the initial number of copies of the transcript. […] For the quantification of each mRNA, three independent experiments (from biological replicates) were performed in triplicate. […]

dystrophin = conditions: skeletal muscle of mdx mice, subcutaneous injections (Barton-Davis et al, 1999); cited from earlier work
[2] = tested on: TP53 R213X nonsense mutation; assay: Dual reporter (lacZ/F-luc, pAC99) stop codon readthrough quantification, R213X, NIH3T3 cells; assay type: cell-based, mouse; conditions: 24 h, each drug separately or together
Source text: Complementary oligonucleotides corresponding to TP53 R213X nonsense mutations and 9 nucleotides on both sides are ligated into the pAC99 dual reporter plasmid, as previously described (Premature stop codons involved in muscular dystrophies show a broad spectrum of readthrough efficiencies in response to gentamicin treatment, Bidou et al, Gene Therapy 1 Apr. 2004, 11(7):619-627). This dual reporter is used to quantify stop-codon readthrough through the measurement of luciferase and beta-galactosidase (internal calibration) activities, as previously described (Stahl et al, Versatile vectors to study recoding: conservation of rules between yeast and mammalian cells. Nucleic Acids Res 1995; 23:1557-60). Readthrough levels for nonsense mutations were analysed in the presence or absence of tested molecules. Cells were seeded in a 6-well plate. The next day, cells are transfected with the reporter plasmid in the presence of JetPei reagent (Invitrogen). The following day, they are rinsed with fresh medium, with or without readthrough inducers. […] Readthrough efficiency was estimated by calculating the ratio of luciferase activity to beta-galactosidase activity obtained with the test construct, with normalisation against an in-frame control construct. […]

[3] = tested on: TP53 nonsense mutation R213X; assay: Secreted Metridia luciferase R213X reporter in stable NIH3T3 cell line (HTS); assay type: cell-based, mouse; conditions: gentamicin 1.6 mM 24 hours, 7 clones, library molecules 50 μM
Experimental: All cells were cultured in DMEM plus GlutaMAX (Invitrogen), except for H1299 cells, which were cultured in RPMI plus GlutaMAX (Invitrogen). The medium was supplemented with 10% foetal calf serum (FCS, Invitrogen) and 100 U/ml penicillin/streptomycin. Cells were kept in a humidified atmosphere containing 5.5% CO2, at 37° C. NIH3T3 cells are embryonic mouse fibroblasts. H1299 is a p53-null cell line established from a human lung carcinoma (provided by the ATCC). HDQ-P1 is homozygous for a nonsense mutation at codon 213 (CGA to TGA) in the p53 gene. This cell line was established from a human primary breast carcinoma and was provided by DSMZ-German collection of microorganisms and cell cultures. In order to generate a stable mammalian cell line the inventors used a secreted Metridia luciferase reporter gene derived from pMetLuc2 (Clonetech). […] Seven neomycin resistant clones were tested for their capacity to express active metridiae after readthrough induction in the presence of 1.6 mM gentamicin during 24 hours. Then 50 μL of culture medium was taken from each well and incubated in the presence of substrate: coelenterazine, according to the conditions recommended by the supplier (Ready-To-Glow Secreted Luciferase Reporter Assay (Clonetech)). The photon emission generated by the reaction was measured in a plate luminometer (Tecan). […]

Row | Compound | IC50 (HeLa cells) | Inducting factor of readthrough as compared to untreated cells (measured on nonsense mutation W1268X) (nonsense mutation W1268X) | Inducting factor of readthrough as compared to untreated cells (measured on nonsense mutation R213X) (nonsense mutation R213X) | further results
1 | Cc1nc(NC(=N)N)nc2cc(F)ccc12 [EC-11] | 40 µM | 11 | – | –
2 | COc1ccc2c(C)nc(NC(=N)N)nc2c1 [EC-18, 1-(7-methoxy-4-methylquinazolin-2-yl)guanidine] | 60 µM | 69 | 50 | –
3 | COc1cccc2c(C)nc(NC(=N)N)nc12 [EC-30] | 80 µM | 10 | – | –
4 | Cc1nc(NC(=N)N)nc2c(C)cccc12 [EC-35, 1-(4,8-dimethylquinazolin-2-yl)guanidine] | 20 µM | 11 | 14 | –
5 | Cc1nc(NC(=N)N)nc2cc(Br)ccc12 [EC-85] | 20 µM | 15 | 16 | –
6 | Cc1nc(NC(=N)N)nc2c(C)c(Br)ccc12 [EC-130, 1-(7-bromo-4,8-dimethylquinazolin-2-yl)guanidine] | 10 µM | 21 | 33 | –
7 | Cc1nc(NC(=N)N)nc2cc(Cl)ccc12 [EC-141] | 40 µM | 16 | – | –
8 | CCc1nc(NC(=N)N)nc2cc(OC)ccc12 [EC-265] | 60 µM | 19 | 40 | –
9 | Cc1nc(NC(=N)N)nc2c(C)c(F)ccc12 [EC-288, 1-(7-fluoro-4,8-dimethylquinazolin-2-yl)guanidine] | 20 µM | 68 | 55 | –
10 | Cc1nc(NC(=N)N)nc2c(C)c(Cl)ccc12 [EC-335, 1-(7-chloro-4,8-dimethylquinazolin-2-yl)guanidine] | 10 µM | 33 | 38 | –
11 | COc1cc(C(=O)OCCCN2CCCN(CCCOC(=O)c3cc(OC)c(OC)c(OC)c3)CC2)cc(OC)c1OC.Cl.Cl [TLN236] | – | – | – | production of the full-length p53 (western blot) [1]: no protein is revealed
12 | CCN(CC)Cc1cc(Nc2ccnc3cc(Cl)ccc23)ccc1O [TLN309, Amodiaquine] | – | – | – | level of induction of full-length p53 compared with G418 ([1]; G418 10 and 20 mM): even higher to the one obtained in presence of G418; production of the full-length p53 (western blot) [1]: stimulate the production of the full-length p53; stabilisation of TP53-R213X mRNA relative to untreated (TP53-R213X mRNA): marginal stabilisation
13 | gentamicin | – | – | – | restoration of dystrophin levels relative to wild-type animals (dystrophin): 10-20%; readthrough level [2]: 10%; induction of Metridia luciferase activity [3]: significant induction
